# Test results published in US8268369B2, “Compositions and methods for treating hypercholesterolemia using Ortanique peel extract” (The University of the West Indies, priority 2008, dated 2012).
# Marks after values point to notes of the source that are not given here.
# Columns and labels:
# glutathione reductase = assay: Glutathione reductase activity in organs of rats; format: in vivo; details: hypercholesterolemic rats
# glutathione peroxidase = assay: Glutathione peroxidase activity in organs of rats; format: in vivo; details: hypercholesterolemic rats
# [1] = test system: diet-induced hypercholesterolemic rats; assay: Kidney function: serum creatinine and urea; details: comparison among the groups
# glutathione transferase = assay: Glutathione transferase activity in organs of rats; format: in vivo; details: hypercholesterolemic rats
smiles,measurement,setting,value
O=C(O)c1cccnc1 [niacin],"Glutathione Reductase Activity, Brain",glutathione reductase; brain,14.95 ± 1.67^a nmol/min/mg protein
same,"Glutathione Reductase Activity, Heart",glutathione reductase; heart,12.53 ± 0.85^a nmol/min/mg protein
same,"Glutathione Reductase Activity, Kidney",glutathione reductase; kidney,12.36 ± 0.10^a nmol/min/mg protein
same,"Glutathione Reductase Activity, Spleen",glutathione reductase; spleen,49.48 ± 3.32^a nmol/min/mg protein
same,"Glutathione Peroxidase Activity, Brain",glutathione peroxidase; brain,0.59 ± 0.18^a nmol/min/mg protein
same,"Glutathione Peroxidase Activity, Heart",glutathione peroxidase; heart,5.14 ± 0.63^a nmol/min/mg protein
same,"Glutathione Peroxidase Activity, Kidney",glutathione peroxidase; kidney,3.35 ± 1.30^a nmol/min/mg protein
same,"Glutathione Peroxidase Activity, Spleen",glutathione peroxidase; spleen,0.21 ± 0.034^a nmol/min/mg protein
same,level of serum creatinine,[1],no significant differences
same,level of serum urea,[1],no significant differences
same,"Glutathione Transferase Activity, Brain",glutathione transferase; brain,0.28 ± 0.04^a nmol/min/mg protein
same,"Glutathione Transferase Activity, Heart",glutathione transferase; heart,0.21 ± 0.011^a nmol/min/mg protein
same,"Glutathione Transferase Activity, Kidney",glutathione transferase; kidney,0.20 ± 0.05^b nmol/min/mg protein
same,"Glutathione Transferase Activity, Spleen",glutathione transferase; spleen,0.16 ± 0.07^b nmol/min/mg protein
